Reference: ChEMBL document CHEMBL1201862, “PubChem BioAssay data set” (2004)
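Tested at 5 concentrations; 48 h exposure; 96-well plates; endpoints linearly interpolated, else capped at highest concentration. Here, GI50 denotes the concentration required for 50% inhibition of growth.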 The source made the active and inactive calls. Rule as the data show it: active = GI50 up to about 1.1 µM and inactive = higher.

Experiments:
Assay in all cases: growth of human tumour cells (NCI), 48 h
[1] = tested on: A498
[2] = tested on: A549
[3] = tested on: ACHN
[4] = tested on: CCRF-CEM
[5] = tested on: EKVX
[6] = tested on: HOP-62
[7] = tested on: LOX IMVI
[8] = tested on: M14
[9] = tested on: NCI-H522
[10] = tested on: RXF 393
[11] = tested on: SF-268
[12] = tested on: SF-539
[13] = tested on: SK-MEL-2
[14] = tested on: SN12C
[15] = tested on: SNB-19
[16] = tested on: SR

Measured: GI50

Cc1ccc(NC(=O)CC2Sc3ccccc3NC2=O)c(C)c1 (stereo unspecified)
inactive: [1] 14 µM | [2] 16 µM | [3] 18.8 µM | [4] 10.7 µM | [5] 46.7 µM | [6] 12.1 µM | [7] 19.6 µM | [8] 12.4 µM | [9] 11.4 µM | [10] 14 µM | [11] 21.4 µM | [12] 14 µM | [13] 4.56 µM | [14] 38.2 µM | [15] 14.7 µM

CC1CCCc2c1c1ccc3c(O)cccc3c1oc2=O (stereo unspecified)
inactive: [2] 56.9 µM | [3] 19.7 µM | [4] 67.1 µM | [5] 2.05 µM | [6] 18.7 µM | [7] 95.5 µM | [8] > 100 µM | [9] 13.7 µM | [10] 18.8 µM | [11] 17.3 µM | [13] 28.9 µM | [14] 43 µM | [15] 34.7 µM | [16] > 100 µM

CC1=CP(=O)(c2ccccc2)C=C(C)C1=C(Cl)Cl (stereo unspecified)
inactive: [2] 6.24 µM | [4] 3.93 µM | [6] 3.26 µM | [7] 4.05 µM | [8] 4.99 µM | [9] 2.6 µM | [10] 16.9 µM | [11] 3.98 µM | [12] 5.24 µM | [14] 15.6 µM | [15] 17.7 µM

CCO/S(=N/S(=O)(=O)c1ccccc1)c1ccccc1[N+](=O)[O-] (stereo unspecified)
inactive: [2] > 100 µM | [4] 80.2 µM | [5] > 100 µM | [6] > 100 µM | [7] > 100 µM | [8] > 100 µM | [9] > 100 µM | [11] > 100 µM | [12] > 100 µM | [13] > 100 µM | [14] > 100 µM | [15] > 100 µM | [16] > 100 µM

O=C1C2Nc3ccccc3SC2C(=O)N1c1ccc(Br)cc1 (stereo unspecified)
inactive: [1] 26 µM | [2] 31.6 µM | [3] 17.6 µM | [4] > 10 µM | [5] 23.4 µM | [6] 17.1 µM | [7] 27.9 µM | [8] 33.5 µM | [9] 21.7 µM | [10] 18.2 µM | [11] 73.1 µM | [12] 26.4 µM | [13] 17.7 µM | [14] 35.9 µM | [15] 34.3 µM

COC(=O)C1CSC(c2csc(CCN)n2)=N1 (stereo unspecified)
inactive: [2] > 100 µM | [3] > 100 µM | [4] > 100 µM | [5] > 100 µM | [7] > 100 µM | [8] > 100 µM | [9] > 100 µM | [10] > 100 µM | [13] > 100 µM | [14] > 100 µM | [15] > 100 µM | [16] > 100 µM

COc1cc(/C=C\c2ccncc2)cc(OC)c1OC
inactive: [1] > 100 µM | [2] 69 µM | [3] > 100 µM | [4] > 100 µM | [5] 70.8 µM | [6] > 100 µM | [7] 44.2 µM | [8] 42.9 µM | [9] 43.3 µM | [10] > 100 µM | [11] > 100 µM | [12] > 100 µM | [14] > 100 µM | [15] > 100 µM

CCN(CC)CC(C(=O)Nc1c(C)cccc1C)/C(C)=N\NC(=S)NN (stereo unspecified)
inactive: [1] > 100 µM | [2] > 100 µM | [3] > 100 µM | [4] > 100 µM | [5] > 100 µM | [6] > 100 µM | [7] > 100 µM | [8] > 100 µM | [9] > 100 µM | [10] > 100 µM | [11] > 100 µM | [12] > 100 µM | [13] > 100 µM

CCOC(=O)NC(=O)c1cn(C2CCCCC2)c(=O)[nH]c1=O
inactive: [1] 85.3 µM | [2] 58.7 µM | [3] 35.6 µM | [4] 33.3 µM | [5] > 100 µM | [6] 38 µM | [7] 9.75 µM | [8] 55.1 µM | [9] > 100 µM | [11] > 100 µM | [12] 39.7 µM | [13] > 100 µM | [14] > 100 µM | [15] > 100 µM

N#CCc1nc2c(s1)C(=O)c1ccccc1C2=O
inactive: [1] 32.7 µM | [3] 14.1 µM | [5] 14.4 µM | [6] 15 µM | [7] 13.5 µM | [8] 15.2 µM | [9] 14.7 µM | [10] 30.6 µM | [11] 15.9 µM | [12] 14.8 µM | [13] 17.3 µM | [14] 18.8 µM | [15] 21.4 µM

CC(C)(C)C(=O)C(c1ccc(-c2cscn2)cc1)c1ccc(-c2cscn2)cc1
inactive: [1] 21.9 µM | [2] 29.6 µM | [3] 32 µM | [4] > 100 µM | [5] 33.3 µM | [6] 18.5 µM | [7] > 69.2 µM | [8] 97.5 µM | [9] 22.8 µM | [10] 18.8 µM | [11] 25.5 µM | [12] 23.6 µM | [13] 21.4 µM | [14] 34.7 µM | [15] 28.1 µM

CCOC(=O)NC(=O)c1cn(CCCOC(=O)NCCCCCCNC(=O)OCCCn2c(=O)c(C(=O)NC(=O)OCC)cn(C)c2=O)c(=O)n(C)c1=O
inactive: [1] > 100 µM | [2] > 100 µM | [3] > 100 µM | [4] > 100 µM | [7] > 100 µM | [8] > 100 µM | [9] > 100 µM | [10] 24.8 µM | [11] > 100 µM | [13] > 100 µM | [14] > 100 µM

CCOC(=O)C(=O)Nc1nc2ccc(OC)cc2s1
inactive: [1] > 100 µM | [2] > 100 µM | [3] > 100 µM | [4] > 100 µM | [5] > 100 µM | [6] > 100 µM | [7] > 100 µM | [8] > 100 µM | [9] > 10 µM | [11] > 100 µM | [12] > 100 µM | [13] > 100 µM | [14] > 100 µM | [15] > 100 µM

c1c[nH]c(Cc2nc(Cc3c[nH]cn3)c[nH]2)n1
inactive: [1] 9.79 µM | [2] 3.96 µM | [3] 3.51 µM | [4] 5.06 µM | [5] 4.49 µM | [6] 17.5 µM | [7] 16.5 µM | [8] 10.5 µM | [9] 12.2 µM | [11] 4.65 µM | [12] 27.2 µM | [13] 13.7 µM | [14] 29.6 µM | [15] 22.5 µM

Clc1cc2nc[nH]c2cc1Cl
inactive: [1] 15.7 µM | [2] > 100 µM | [3] > 100 µM | [4] > 100 µM | [5] > 100 µM | [6] 93.8 µM | [7] > 100 µM | [8] > 100 µM | [11] > 100 µM | [12] > 100 µM | [13] > 100 µM | [14] > 100 µM | [15] > 100 µM
